# Experimental data: patent publication US20240228555A9, “ANTIMICROBIAL PEPTIDOMIMETICS” (Basilea Pharmaceutica International AG, Allschwil, priority 2020, published 2024)
# Where two headings read alike, the source gives them in different places. Where a SMILES comes first, the peptide text is derived from it.
# Assays:
# [1] = system: human red blood cells (hRBC); type: cell-based; details: red cells of human, 1 h, 0.2 g/L
# Protocol: (§1) Lyophilized peptides were weighed on a Microbalance (Mettler MT5) and dissolved in sterile water to a final concentration of 1 mg/mL. Stock solutions were kept at +4° C., light protected.
# The peptides were tested for their hemolytic activity against human red blood cells (hRBC). Fresh hRBC were washed three times with phosphate buffered saline (PBS) and centrifuged for 5 min at 3000×g. Compounds (200 μg/mL) were incubated with 20% hRBC (v/v) for 1 h at 37° C. and shaking at 300 rpm. A value of 0% and 100% cell lyses, respectively, was determined by incubation of hRBC in the presence of PBS and 2.5% Triton X-100 in H2O, respectively. The samples were centrifuged, the supernatants were 8-fold diluted in PBS buffer and the optical densities (OD) were measured at 540 nm. The 100% lyses value (OD540H2O) gave an OD540 of approximately 0.5-1.0.
# Percent hemolysis was calculated as follows: (OD540peptide/OD540H2O)×100%.
# [2] = system: Klebsiella pneumoniae SSI3010
# Protocol: as §1
# (§2) Colonies of the microorganisms were diluted in saline (0.85%, NaCl) and adjusted using a McFarland reader (bioMérieux SA, Marcy-l'Etoile, France) to 0.5 McFarland standard. Subsequently, the bacterial suspension was diluted in Mueller-Hinton II (MHII, cation adjusted) broth to give approximately 5×10^5 colony forming units (CFU/mL).
# (§3) 10^6 colony forming units (CFU)/mL. Aliquots (90 μl) of inoculate were added to 10 μl of water+P-80 (Polysorbate 80, 0.002% final concentration) containing the peptide in serial two-fold dilutions at 10 fold final concentration. The following microorganisms were used to determine antibiotic selectivity of the peptides: Escherichia coli ATCC 25922, Escherichia coli MCR-1 Af 45 and Klebsiella pneumoniae SSI3010.
# [3] = system: Escherichia coli ATCC 25922
# Protocol: as §1, §2, §3
# [4] = system: Escherichia coli MCR-1 Af 45; details: Mueller-Hinton broth II, no visible growth after 18-20 hours at 35° C.
# Protocol: as §1, §2, §3
# [5] = Mueller-Hinton broth II, no visible growth after 18-20 hours at 35° C.
SMILES,Hemolysis at 0.2 g/L [1] [%],"Klebsiella pneumoniae SSI3010 MIC [2, 5] [µg/mL]","Escherichia coli ATCC 25922 MIC [3, 5] [µg/mL]",Klebsiella pneumoniae SSI3010 MIC ([2]; SSI3010) [µg/mL],Escherichia coli MCR-1 Af 45 MIC [4] [µg/mL],Escherichia coli ATCC 25922 MIC ([3]; ATCC 25922) [µg/mL]
"CCCC[C@H](NC(=O)[C@H](CCCNC(=N)N)NC(=O)[C@H](CCN)NC(=O)[C@@H]1CSSC(C)(C)[C@H](NC(=O)[C@H](Cc2ccc(O)cc2)NC(=O)[C@@H](NC(=O)[C@@H](NC(=O)[C@@H]2C[C@@H](N)CN2C(=O)[C@@H](N)C(C)C)[C@@H](C)CC)[C@@H](C)CC)C(=O)N[C@@H](CC(N)=O)C(=O)N[C@@H](CCCNC(=N)N)C(=O)N[C@@H](CCCNC(=N)N)C(=O)N[C@@H]([C@@H](C)O)C(=O)N[C@H](CCN)C(=O)N[C@@H](CCCCN)C(=O)N1)C(=O)O [Example 2, Val-Pro((4R)NH2)-Ile-Ile-Tyr-Pen-Asn-Arg-Arg-Thr-^DDab-Lys-Cys-Dab-Arg-Nle] (HELM PEPTIDE1{V.[N[C@@H]1C[C@@H](C(=O)[*:2])N([*:1])C1].I.I.Y.[Pen].N.R.R.T.[NCC[C@@H](N[*:1])C(=O)[*:2]].K.C.[Dab].R.[Nle]}$PEPTIDE1,PEPTIDE1,6:R3-13:R3$$$V2.0)",0,0.125,0.0625,–,–,–
"CC[C@H](C)[C@H](NC(=O)[C@@H](NC(=O)[C@@H]1CCCN1C(=O)[C@@H](N)C(C)C)[C@@H](C)CC)C(=O)N[C@@H](Cc1ccc(O)cc1)C(=O)N[C@@H]1C(=O)N[C@@H](CC(N)=O)C(=O)N[C@@H](CCCNC(=N)N)C(=O)N[C@@H](CCN)C(=O)N[C@@H]([C@@H](C)O)C(=O)N[C@H](CCN)C(=O)N[C@@H](CCCCN)C(=O)N[C@H](C(=O)N[C@@H](CCN)C(=O)N[C@@H](CCCNC(=N)N)C(=O)N[C@@H](Cc2ccc(O)cc2)C(=O)O)CSSC1(C)C [Example 7, Val-Pro-Ile-Ile-Tyr-Pen-Asn-Arg-Dab-Thr-^DDab-Lys-Cys-Dab-Arg-Tyr] (HELM PEPTIDE1{V.P.I.I.Y.[Pen].N.R.[Dab].T.[NCC[C@@H](N[*:1])C(=O)[*:2]].K.C.[Dab].R.Y}$PEPTIDE1,PEPTIDE1,6:R3-13:R3$$$V2.0)",0,0.125,0.0625,–,–,–
"CC[C@H](C)[C@H](NC(=O)[C@@H](NC(=O)[C@@H]1C[C@@H](O)CN1C(=O)[C@@H](N)C(C)C)[C@@H](C)CC)C(=O)N[C@@H](Cc1ccc(O)cc1)C(=O)N[C@@H]1C(=O)N[C@@H](CC(N)=O)C(=O)N[C@@H](CCCNC(=N)N)C(=O)N[C@@H](CCN)C(=O)N[C@@H]([C@@H](C)O)C(=O)N[C@H](CCN)C(=O)N[C@@H](CCCCN)C(=O)N[C@H](C(=O)N[C@@H](CCN)C(=O)N[C@@H](CCCNC(=N)N)C(=O)N[C@@H](Cc2ccc(O)cc2)C(=O)O)CSSC1(C)C [Example 14, Val-Hyp-Ile-Ile-Tyr-Pen-Asn-Arg-Dab-Thr-^DDab-Lys-Cys-Dab-Arg-Tyr] (HELM PEPTIDE1{V.[Hyp].I.I.Y.[Pen].N.R.[Dab].T.[NCC[C@@H](N[*:1])C(=O)[*:2]].K.C.[Dab].R.Y}$PEPTIDE1,PEPTIDE1,6:R3-13:R3$$$V2.0)",0,–,0.125,0.25,–,–
"CC[C@H](C)[C@H](NC(=O)[C@@H](NC(=O)[C@@H]1CCCN1C(=O)[C@@H](NC(=N)N)C(C)C)[C@@H](C)CC)C(=O)N[C@@H](Cc1ccc(O)cc1)C(=O)N[C@@H]1C(=O)N[C@@H](CC(N)=O)C(=O)N[C@@H](CCCNC(=N)N)C(=O)N[C@@H](CCN)C(=O)N[C@@H]([C@@H](C)O)C(=O)N[C@H](CCN)C(=O)N[C@@H](CCCCN)C(=O)N[C@H](C(=O)N[C@@H](CCN)C(=O)N[C@@H](CCCNC(=N)N)C(=O)N[C@@H](Cc2ccc(O)cc2)C(=O)O)CSSC1(C)C [Example 54, Gua-Val-Pro-Ile-Ile-Tyr-Pen-Asn-Arg-Dab-Thr-^DDab-Lys-Cys-Dab-Arg-Tyr] (HELM PEPTIDE1{[CC(C)[C@H](NC(=N)N)C(=O)[*:2]].P.I.I.Y.[Pen].N.R.[Dab].T.[NCC[C@@H](N[*:1])C(=O)[*:2]].K.C.[Dab].R.Y}$PEPTIDE1,PEPTIDE1,6:R3-13:R3$$$V2.0)",0,0.125,0.125,–,–,–
"CC[C@H](C)[C@H](NC(=O)[C@@H](NC(=O)[C@@H]1C[C@@H](O)CN1C(=O)[C@@H](NC(=N)N)C(C)C)[C@@H](C)CC)C(=O)N[C@@H](Cc1ccc(O)cc1)C(=O)N[C@@H]1C(=O)N[C@@H](CC(N)=O)C(=O)N[C@@H](CCCNC(=N)N)C(=O)N[C@@H](CCN)C(=O)N[C@@H]([C@@H](C)O)C(=O)N[C@H](CCN)C(=O)N[C@@H](CCCCN)C(=O)N[C@H](C(=O)N[C@@H](CCN)C(=O)N[C@@H](CCCNC(=N)N)C(=O)N[C@@H](Cc2ccc(O)cc2)C(=O)O)CSSC1(C)C [Example 56, Gua-Val-Hyp-Ile-Ile-Tyr-Pen-Asn-Arg-Dab-Thr-^DDab-Lys-Cys-Dab-Arg-Tyr] (HELM PEPTIDE1{[CC(C)[C@H](NC(=N)N)C(=O)[*:2]].[Hyp].I.I.Y.[Pen].N.R.[Dab].T.[NCC[C@@H](N[*:1])C(=O)[*:2]].K.C.[Dab].R.Y}$PEPTIDE1,PEPTIDE1,6:R3-13:R3$$$V2.0)",0,0.0625,0.03125,–,–,–
"CC[C@H](C)[C@H](NC(=O)[C@@H](NC(=O)[C@@H]1C[C@@H](O)CN1C(=O)[C@@H](N)C(C)C)[C@@H](C)CC)C(=O)N[C@@H](Cc1ccc(O)cc1)C(=O)N[C@@H]1C(=O)N[C@@H](CC(N)=O)C(=O)N[C@@H](CCCNC(=N)N)C(=O)N[C@@H](CCN)C(=O)N[C@@H]([C@@H](C)O)C(=O)N[C@H](CCN)C(=O)N[C@@H](CCCCN)C(=O)N[C@H](C(=O)N[C@@H](CCN)C(=O)N[C@@H](CCCNC(N)=O)C(=O)N[C@@H](Cc2ccc(O)cc2)C(=O)O)CSSC1(C)C [Example 73, Val-Hyp-Ile-Ile-Tyr-Pen-Asn-Arg-Dab-Thr-^DDab-Lys-Cys-Dab-Cit-Tyr] (HELM PEPTIDE1{V.[Hyp].I.I.Y.[Pen].N.R.[Dab].T.[NCC[C@@H](N[*:1])C(=O)[*:2]].K.C.[Dab].[Cit].Y}$PEPTIDE1,PEPTIDE1,6:R3-13:R3$$$V2.0)",<1,–,–,0.5,0.25,0.5
"CC[C@H](C)[C@H](NC(=O)[C@@H](NC(=O)[C@@H]1C[C@@H](O)CN1C(=O)[C@@H](N)C(C)C)[C@@H](C)CC)C(=O)N[C@@H](Cc1ccc(O)cc1)C(=O)N[C@@H]1C(=O)N[C@@H](CC(N)=O)C(=O)N[C@@H](CCCNC(=N)N)C(=O)N[C@@H](CCN)C(=O)N[C@@H]([C@@H](C)O)C(=O)N[C@H](CCN)C(=O)N[C@@H](CCCCN)C(=O)N[C@H](C(=O)N[C@@H](CCN)C(=O)N[C@@H](CCN)C(=O)N[C@@H](Cc2ccc(O)cc2)C(=O)O)CSSC1(C)C [Example 74, Val-Hyp-Ile-Ile-Tyr-Pen-Asn-Arg-Dab-Thr-^DDab-Lys-Cys-Dab-Dab-Tyr] (HELM PEPTIDE1{V.[Hyp].I.I.Y.[Pen].N.R.[Dab].T.[NCC[C@@H](N[*:1])C(=O)[*:2]].K.C.[Dab].[Dab].Y}$PEPTIDE1,PEPTIDE1,6:R3-13:R3$$$V2.0)",<1,–,–,0.25,0.0625,0.125
"CC[C@H](C)[C@H](NC(=O)[C@@H](NC(=O)[C@@H]1C[C@@H](O)CN1C(=O)[C@@H](N)C(C)C)[C@@H](C)CC)C(=O)N[C@@H](Cc1ccc(O)cc1)C(=O)N[C@@H]1C(=O)N[C@@H](CC(N)=O)C(=O)N[C@@H](CCCNC(=N)N)C(=O)N[C@@H](CCN)C(=O)N[C@@H](CO)C(=O)N[C@H](CCN)C(=O)N[C@@H](CCCCN)C(=O)N[C@H](C(=O)N[C@@H](CCN)C(=O)N[C@@H](CCCNC(=N)N)C(=O)N[C@@H](Cc2ccc(O)cc2)C(=O)O)CSSC1(C)C [Example 75, Val-Hyp-Ile-Ile-Tyr-Pen-Asn-Arg-Dab-Ser-^DDab-Lys-Cys-Dab-Arg-Tyr] (HELM PEPTIDE1{V.[Hyp].I.I.Y.[Pen].N.R.[Dab].S.[NCC[C@@H](N[*:1])C(=O)[*:2]].K.C.[Dab].R.Y}$PEPTIDE1,PEPTIDE1,6:R3-13:R3$$$V2.0)",<1,–,–,0.125,0.0625,0.0625
